From US11926616B2, “Aminopyrazine diol compounds as PI3K-γ inhibitors” (Incyte Corporation, priority 2018, dated 2024)

Columns and labels:
[1] = target: PI3Kγ (p110γ) Recombinant Human Protein (Homo sapiens (Human), UniProt P48736); experiment: PI3K-γ Scintillation Proximity Assay; assay type: biochemical; settings: 20 μM PIP2, 2 μM ATP, 13 nM PI3Kγ, 120 min, room temperature
Description: Example B. PI3K-γ Scintillation Proximity Assay Materials: [γ-^33P]ATP (10 mCi/mL) and Wheat Germ Agglutinin (WGA) YSi SPA Scintillation Beads was purchased from Perkin Elmer (Waltham, MA). Lipid kinase substrate, D-myo-Phosphatidylinositol 4,5-bisphosphate (PtdIns(4,5)P2)D (+)-sn-1,2-di-O-octanoylglyceryl, 3-O-phospho linked (PIP2), CAS 204858-53-7, was purchased from Echelon Biosciences (Salt Lake City, UT). PI3Kγ (p110γ) Recombinant Human Protein was purchased from Life technology (Grand Island, NY). ATP, MgCl2, DTT, EDTA, MOPS and CHAPS were purchased from Sigma Aldrich (St. Louis, MO). The kinase reaction was conducted in polystyrene 384-well Greiner Bio-one white plate from Thermo Fisher Scientific in a final volume of 25 μL. Inhibitors were first diluted serially in DMSO and added to the plate wells before the addition of other reaction components. The final concentration of DMSO in the assay was 2%. The PI3Kγ assay was carried out at room temperature in 20 mM MOPS, pH 6.7, 10 mM MgCl2, 5 mM DTT and CHAPS 0.03%. Reactions were initiated by the addition of ATP, the final reaction mixture consisted of 20 μM PIP2, 2 μM ATP, 0.5 μCi [γ-^33P] ATP, 13 nM PI3Kγ. Reactions were incubated for 120 min and terminated by the addition of 40 μL SPA beads suspended in quench buffer: 163 mM potassium phosphate pH 7.8, 20% glycerol, 25 mM EDTA. The final concentration of SPA beads is 1.0 mg/mL. After the plate sealing, plates were shaken overnight at room temperature and centrifuged at 1500 rpm for 10 min, the radioactivity of the product was determined by scintillation counting on Topcount (Perkin-Elmer). IC50 determination was performed by fitting the curve of percent of the solvent control activity versus the log of the inhibitor concentration using the GraphPad Prism 6.0 software.

[2] = tested on: Phosphorylated Ribosomal Protein S6 (RPS6) in THP-1 cells; experiment: THP-1 RPS6 ELISA Assay; assay type: cell-based, Human; settings: Homo sapiens; THP-1 cells, serum starved, 2 hours compound, 10 nM MCP-1 for 15 minutes, Phospho-RPS6 ELISA; read-out: PI3Kγ_THP1_RPS6_ELISA IC50
Procedure: Example A. THP-1 RPS6 ELISA Assay
To measure the Phosphorylated Ribosomal Protein S6 (RPS6) in cell lysates, THP-1 cells (Human Acute Monocytic Leukemia) are purchased from ATCC (Manassas, VA) and maintained in RPMI with 10% FBS (Gibco/Life Technologies, Carlsbad, CA). For the assay, THP-1 cells are serum starved overnight in RPMI, then plated in RPMI (2×10^5 cells/well in 90 μL) into 96-well flat-bottom tissue culture treated plates (Corning, Corning, NY), in the presence or absence of a concentration range of test compounds. Covered plates are incubated for 2 hours at 37° C., 5% CO2 then treated with or without 10 nM MCP-1(MYBioSource, San Diego, CA) for 15 minutes at 37° C., 5% CO2. Plates are centrifuged at 1600 RPM and supernatants are removed. Cells are lysed in Lysis Buffer (Cell Signaling, Danvers, MA) with Protease Inhibitor (Calbiochem/EMD, Germany), PMSF (Sigma, St Louis MO), HALTS (Thermo Fisher, Rockford, IL) for 30 min on wet ice. Cell lysates are frozen at −80° C. before testing. The lysates are tested in the Human/Mouse/Rat Phospho-RPS6 ELISA (R&D Systems, Inc. Minn, MN). The plate is measured using a microplate reader (SpectraMax M5—Molecular Devices, LLC Sunnyvale, CA) set to 450 nm with a wavelength correction of 540. IC50 determination is performed by fitting the curve of inhibitor percent inhibition versus the log of the inhibitor concentration using the GraphPad Prism 5.0 software.

[3] = target: PI3Kδ (p110δ/p85α) Recombinant Human Protein (Homo sapiens (Human), UniProt O00329); experiment: PI3Kδ Scintillation Proximity Assay; assay type: biochemical; settings: 20 μM PIP2, 2 μM ATP, 3.4 nM PI3Kδ, 120 min, room temperature
Description: Example C. PI3Kδ Scintillation Proximity Assay Materials: [γ-^33P]ATP (10 mCi/mL) and Wheat Germ Agglutinin (WGA) YSi SPA Scintillation Beads was purchased from Perkin Elmer (Waltham, MA). Lipid kinase substrate, D-myo-Phosphatidylinositol 4,5-bisphosphate (PtdIns(4,5)P2)D (+)-sn-1,2-di-O-octanoylglyceryl, 3-O-phospho linked (PIP2), CAS 204858-53-7, was purchased from Echelon Biosciences (Salt Lake City, UT). PI3Kδ (p110δ/p85α) Recombinant Human Protein was purchased from Eurofins (St Charles, MO). ATP, MgCl2, DTT, EDTA, MOPS and CHAPS were purchased from Sigma Aldrich (St. Louis, MO). The kinase reaction was conducted in polystyrene 384-well Greiner Bio-one white plate from Thermo Fisher Scientific in a final volume of 25 μL. Inhibitors were first diluted serially in DMSO and added to the plate wells before the addition of other reaction components. The final concentration of DMSO in the assay was 2%. The PI3Kδ assay was carried out at room temperature in 20 mM MOPS, pH 6.7, 10 mM MgCl2, 5 mM DTT and CHAPS 0.03%. Reactions were initiated by the addition of ATP, the final reaction mixture consisted of 20 μM PIP2, 2 μM ATP, […] [γ-^33P] ATP, 3.4 nM PI3Kδ. Reactions were incubated for 120 min and terminated by the addition of 40 μL SPA beads suspended in quench buffer: 163 mM potassium phosphate pH 7.8, 20% glycerol, 25 mM EDTA. The final concentration of SPA beads is 1.0 mg/mL. After the plate sealing, plates were shaken overnight at room temperature and centrifuged at 1500 rpm for 10 min, the radioactivity of the product was determined by scintillation counting on Topcount (PerkinElmer). IC50 determination was performed by fitting the curve of percent of the solvent control activity versus the log of the inhibitor concentration using the GraphPad Prism 6.0 software.

Sequence of PI3Kγ (p110γ) Recombinant Human Protein (P48736 whole entry): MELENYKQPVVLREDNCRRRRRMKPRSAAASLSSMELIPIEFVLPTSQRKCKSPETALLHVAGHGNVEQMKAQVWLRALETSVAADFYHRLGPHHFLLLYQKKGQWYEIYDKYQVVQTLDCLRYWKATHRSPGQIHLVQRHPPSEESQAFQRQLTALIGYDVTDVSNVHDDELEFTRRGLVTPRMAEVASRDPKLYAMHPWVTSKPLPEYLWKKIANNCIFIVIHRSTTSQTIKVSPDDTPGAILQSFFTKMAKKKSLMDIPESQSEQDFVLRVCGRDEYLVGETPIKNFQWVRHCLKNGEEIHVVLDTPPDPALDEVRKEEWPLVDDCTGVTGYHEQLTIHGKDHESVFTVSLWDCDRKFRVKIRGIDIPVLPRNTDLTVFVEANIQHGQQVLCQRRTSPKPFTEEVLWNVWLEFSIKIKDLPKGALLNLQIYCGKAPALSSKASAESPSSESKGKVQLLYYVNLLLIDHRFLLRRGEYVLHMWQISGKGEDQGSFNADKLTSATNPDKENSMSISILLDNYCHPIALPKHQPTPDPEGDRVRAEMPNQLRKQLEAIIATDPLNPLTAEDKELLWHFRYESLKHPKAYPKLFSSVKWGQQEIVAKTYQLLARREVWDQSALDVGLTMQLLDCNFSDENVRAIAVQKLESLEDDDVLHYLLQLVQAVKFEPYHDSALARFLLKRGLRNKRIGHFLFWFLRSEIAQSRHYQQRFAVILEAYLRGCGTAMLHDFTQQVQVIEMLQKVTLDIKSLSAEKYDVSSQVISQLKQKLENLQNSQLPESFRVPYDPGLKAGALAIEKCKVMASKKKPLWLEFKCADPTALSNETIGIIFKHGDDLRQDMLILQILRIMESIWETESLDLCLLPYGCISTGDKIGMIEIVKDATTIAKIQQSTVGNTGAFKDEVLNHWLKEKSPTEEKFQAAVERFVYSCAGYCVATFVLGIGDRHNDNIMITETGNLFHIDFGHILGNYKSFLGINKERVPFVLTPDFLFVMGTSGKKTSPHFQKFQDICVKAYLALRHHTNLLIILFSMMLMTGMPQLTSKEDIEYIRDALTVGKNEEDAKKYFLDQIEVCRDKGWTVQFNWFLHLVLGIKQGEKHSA
Sequence of PI3Kδ (p110δ/p85α) Recombinant Human Protein (O00329 whole entry): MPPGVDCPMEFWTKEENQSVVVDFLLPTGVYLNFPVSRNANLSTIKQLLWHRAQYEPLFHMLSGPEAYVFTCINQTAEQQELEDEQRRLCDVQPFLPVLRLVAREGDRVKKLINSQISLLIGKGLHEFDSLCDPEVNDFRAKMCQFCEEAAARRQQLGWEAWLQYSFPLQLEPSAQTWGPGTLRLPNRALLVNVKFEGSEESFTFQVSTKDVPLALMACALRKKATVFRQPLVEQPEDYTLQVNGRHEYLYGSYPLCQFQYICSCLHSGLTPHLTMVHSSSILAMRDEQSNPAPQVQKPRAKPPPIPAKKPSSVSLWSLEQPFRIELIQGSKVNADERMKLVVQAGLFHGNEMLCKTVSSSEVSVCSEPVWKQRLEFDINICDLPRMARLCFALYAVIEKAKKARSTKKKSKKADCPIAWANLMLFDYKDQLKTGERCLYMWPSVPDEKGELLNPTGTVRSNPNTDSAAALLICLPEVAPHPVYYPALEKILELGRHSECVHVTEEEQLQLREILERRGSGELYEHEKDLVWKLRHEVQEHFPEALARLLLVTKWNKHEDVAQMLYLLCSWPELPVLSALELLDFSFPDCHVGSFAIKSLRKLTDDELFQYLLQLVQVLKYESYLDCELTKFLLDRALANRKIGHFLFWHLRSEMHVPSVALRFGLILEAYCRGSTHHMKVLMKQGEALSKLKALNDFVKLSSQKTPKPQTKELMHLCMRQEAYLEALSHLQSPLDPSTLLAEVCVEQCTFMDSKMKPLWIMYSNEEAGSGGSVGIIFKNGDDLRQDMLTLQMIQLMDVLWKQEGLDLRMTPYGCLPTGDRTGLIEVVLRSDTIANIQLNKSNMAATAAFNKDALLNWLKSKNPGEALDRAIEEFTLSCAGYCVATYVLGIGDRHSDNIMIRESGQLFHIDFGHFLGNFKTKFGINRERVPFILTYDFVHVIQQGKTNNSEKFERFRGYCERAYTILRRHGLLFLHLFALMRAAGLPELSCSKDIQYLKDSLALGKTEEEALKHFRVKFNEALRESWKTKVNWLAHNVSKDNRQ
Sequence of PI3Kδ (p110δ/p85α) Recombinant Human Protein (P27986 whole entry partner): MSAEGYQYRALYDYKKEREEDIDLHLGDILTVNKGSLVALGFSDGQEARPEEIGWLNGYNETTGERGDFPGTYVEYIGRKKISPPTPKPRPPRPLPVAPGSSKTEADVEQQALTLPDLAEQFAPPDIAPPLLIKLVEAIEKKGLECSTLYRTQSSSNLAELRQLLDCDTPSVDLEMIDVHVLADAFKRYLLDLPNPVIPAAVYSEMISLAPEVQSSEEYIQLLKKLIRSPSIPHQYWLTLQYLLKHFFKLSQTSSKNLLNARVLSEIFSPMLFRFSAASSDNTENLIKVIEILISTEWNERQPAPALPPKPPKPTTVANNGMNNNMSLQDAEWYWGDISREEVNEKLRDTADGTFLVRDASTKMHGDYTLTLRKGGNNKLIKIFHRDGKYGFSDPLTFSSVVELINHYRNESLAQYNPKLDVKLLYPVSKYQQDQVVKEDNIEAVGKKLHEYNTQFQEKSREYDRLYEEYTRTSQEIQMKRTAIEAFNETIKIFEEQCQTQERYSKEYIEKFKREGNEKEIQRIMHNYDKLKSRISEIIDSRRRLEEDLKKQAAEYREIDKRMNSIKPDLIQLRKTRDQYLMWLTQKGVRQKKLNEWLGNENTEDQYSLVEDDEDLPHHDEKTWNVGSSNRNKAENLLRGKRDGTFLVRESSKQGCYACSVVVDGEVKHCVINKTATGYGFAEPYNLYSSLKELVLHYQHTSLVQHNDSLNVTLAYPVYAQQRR

Structure (SMILES)	IC50 [1] [µM]	IC50 [2] [µM]	IC50 [3] [µM]
[2H]C([2H])([2H])n1nccc1-c1nc(-c2cc(C(O)(CO)C(F)(F)F)ccc2C)cnc1N (single isomer, unassigned) [Example 1a, 2-(3-(5-Amino-6-(1-(methyl-d3)-1H-pyrazol-5-yl)pyrazin-2-yl)-4-methylphenyl)-3,3,3-trifluoropropane-1,2-diol]	≤ 0.1	< 0.1	≤ 0.1
Cc1ncc(-c2nc(-c3cc(C(O)(CO)C(F)(F)F)ccc3C)cnc2N)o1 (single isomer, unassigned) [Example 9, 2-(3-(5-Amino-6-(2-methyloxazol-5-yl)pyrazin-2-yl)-4-methylphenyl)-3,3,3-trifluoropropane-1,2-diol]	≤ 0.1	< 0.1	≤ 0.1
Cc1ccc(C(O)(CO)C(F)(F)F)cc1-c1cnc(N)c(-n2cccn2)n1 (single isomer, unassigned) [Example 12, 2-(3-(5-Amino-6-(1H-pyrazol-1-yl)pyrazin-2-yl)-4-methylphenyl)-3,3,3-trifluoropropane-1,2-diol]	≤ 0.1	< 0.1	≤ 0.1
[2H]C([2H])([2H])c1ccc(C(O)(CO)C(F)(F)F)cc1-c1cnc(N)c(-c2cnc(C)o2)n1 (single isomer, unassigned) [Example 16, 2-(3-(5-Amino-6-(2-methyloxazol-5-yl)pyrazin-2-yl)-4-(methyl-d3)phenyl)-3,3,3-trifluoropropane-1,2-diol]	≤ 0.1	< 0.1	≤ 0.1
[2H]C([2H])([2H])c1ccc(C(O)(CO)C(F)(F)F)cc1-c1cnc(N)c(C(=O)NC2CCOCC2)n1 (single isomer, unassigned) [Example 17, 3-Amino-6-(2-(methyl-d3)-5-(1,1,1-trifluoro-2,3-dihydroxypropan-2-yl)phenyl)-N-(tetrahydro-2H-pyran-4-yl)pyrazine-2-carboxamide]	≤ 0.1	< 0.1	≤ 0.1
[2H]C([2H])([2H])c1ccc(C(O)(CO)C(F)F)cc1-c1cnc(N)c(C(=O)NC23CCC(O)(CC2)C3)n1 (single isomer, unassigned) [Example 18, 3-Amino-6-(5-(1,1-difluoro-2,3-dihydroxypropan-2-yl)-2-(methyl-d3)phenyl)-N-(4-hydroxybicyclo[2.2.1]heptan-1-yl)pyrazine-2-carboxamide]	≤ 0.1	< 0.1	≤ 0.1
[2H]C([2H])([2H])c1ccc(C(O)(C(C)O)C(F)(F)F)cc1-c1cnc(N)c(C(=O)NC2CCOCC2)n1 (single isomer, unassigned) [Example 19, 3-Amino-6-(2-(methyl-d3)-5-(1,1,1-trifluoro-2,3-dihydroxybutan-2-yl)phenyl)-N-(tetrahydro-2H-pyran-4-yl)pyrazine-2-carboxamide]	≤ 0.1	< 0.5	≤ 0.5
Cc1ccc(C(O)(CO)C(F)(F)F)cc1-c1cnc(N)c(C2CC(C(=O)N3CC(O)C3)C2)n1 (single isomer, unassigned) [Example 24, (3-(3-Amino-6-(2-methyl-5-(1,1,1-trifluoro-2,3-dihydroxypropan-2-yl)phenyl)pyrazin-2-yl)cyclobutyl)(3-hydroxyazetidin-1-yl)methanone]	≤ 0.1	< 0.5	≤ 0.5
[2H]C([2H])([2H])c1ccc(C(O)(CO)C(F)(F)F)cc1-c1cnc(N)c(C(=O)NC2CC(C#N)C2)n1 (single isomer, unassigned) [Example 26]	≤ 0.1	< 0.1	≤ 0.1
[2H]C([2H])([2H])c1ccc(C(O)(C(O)C(F)(F)F)C(F)(F)F)cc1-c1cnc(N)c(-c2c[nH]nc2C)n1 (centres unmarked) [Example 20, 2-(3-(5-Amino-6-(3-methyl-1H-pyrazol-4-yl)pyrazin-2-yl)-4-(methyl-d3)phenyl)-1,1,1,4,4,4-hexafluorobutane-2,3-diol]	≤ 0.1		≤ 0.5
